How the values were obtained:
aqueous solubility = format: physicochemical
[1] = in vitro dissolution test using a microcentrifuge method; format: physicochemical; conditions: for AUC / Torcetrapib Concentration: PBS pH 6.5, 37° C.; for Torcetrapib Concentration: 1000 μg/mL if all drug dissolved
Method: The spray-dried solid amorphous dispersion was evaluated in an in vitro dissolution test using a microcentrifuge method. In this test, 7.2 mg of the spray-dried solid amorphous dispersion was placed into a microcentrifuge tube. The tube was placed in a 37° C. sonicating bath, and 1.8 mL phosphate buffered saline (PBS) at pH 6.5 and 290 mOsm/kg was added, resulting in a torcetrapib concentration of 1000 μg/mL if all of the drug had dissolved. The sample was quickly mixed using a vortex mixer for about 60 seconds. The sample was centrifuged at 13,000 G at 37° C. for 1 minute. The resulting supernatant solution was then sampled and diluted 1:6 (by volume with methanol and then analyzed by high-performance liquid chromatography (HPLC). The contents of the tube was mixed on the vortex mixer and allowed to stand undisturbed at 37° C. until the next sample was taken. Samples were collected at 4, 10, 20, 40, 90, and 1200 minutes. The concentrations of drug obtained in these samples are shown in Table 1, which represent the average of duplicate tests.
As a control, an in vitro dissolution test was performed using the procedures described above except that 1.8 mg of crystalline drug was used. […]

CCOC(=O)N1c2ccc(C(F)(F)F)cc2[C@@H](N(Cc2cc(C(F)(F)F)cc(C(F)(F)F)c2)C(=O)OC)C[C@H]1CC [Crystalline Drug, [2R,4S]-4-[(3,5-bis-trifluoromethyl-benzyl)-methoxycarbonyl-amino]-2-ethyl-6-trifluoromethyl-3,4-dihydro-2H-quinoline-1-carboxylic acid ethyl ester]
solubility (aqueous solubility): < 0.04 µg/mL | AUC90 (area under the aqueous concentration versus time curve after 90 minutes) ([1]; receptor solution PBS): <88 min-μg/mL | Cmax,90 (maximum concentration of torcetrapib in solution during the first 90 minutes) ([1]; receptor solution PBS): <1000 ng/mL | AUC ([1]; time 0 min): 0 min-μg/mL | Torcetrapib Concentration ([1]; time 0 min): 0 µg/mL | AUC ([1]; time 4 min): <2 min-μg/mL | Torcetrapib Concentration ([1]; time 4 min): <1 µg/mL | AUC ([1]; time 10 min): <8 min-μg/mL | Torcetrapib Concentration ([1]; time 10 min): <1 µg/mL | AUC ([1]; time 20 min): <18 min-μg/mL | Torcetrapib Concentration ([1]; time 20 min): <1 µg/mL | AUC ([1]; time 40 min): <38 min-μg/mL | Torcetrapib Concentration ([1]; time 40 min): <1 µg/mL | AUC ([1]; time 90 min): <88 min-μg/mL | Torcetrapib Concentration ([1]; time 90 min): <1 µg/mL | AUC ([1]; time 1200 min): <1,200 min-μg/mL | Torcetrapib Concentration ([1]; time 1200 min): <1 µg/mL

Source: patent publication US20040185102A1, “Dosage forms comprising a CETP inhibitor and an HMG-CoA reductase inhibitor” (Pfizer Inc, priority 2002, published 2004)
